Laboratory results as given in patent publication US20240352016A1, “A CYCLIN-DEPENDENT KINASE INHIBITOR” (TAIZHOU EOC PHARMA CO., LTD., priority 2021, published 2024).
Where a name gives a salt, the structure may show the parent alone. Read-outs that look alike come from different tables or passages of the source.

Experiments:
CDK7/Cyclin H/MAT1 = target: T1, CDK7/Cyclin H/MAT1 (Homo sapiens, UniProt P50613); assay: CDK kinase activity mobility shift assay (MSA); format: biochemical
T1 construct: made in house; host or cells: insect cell
T1 sequence (P50613 whole entry): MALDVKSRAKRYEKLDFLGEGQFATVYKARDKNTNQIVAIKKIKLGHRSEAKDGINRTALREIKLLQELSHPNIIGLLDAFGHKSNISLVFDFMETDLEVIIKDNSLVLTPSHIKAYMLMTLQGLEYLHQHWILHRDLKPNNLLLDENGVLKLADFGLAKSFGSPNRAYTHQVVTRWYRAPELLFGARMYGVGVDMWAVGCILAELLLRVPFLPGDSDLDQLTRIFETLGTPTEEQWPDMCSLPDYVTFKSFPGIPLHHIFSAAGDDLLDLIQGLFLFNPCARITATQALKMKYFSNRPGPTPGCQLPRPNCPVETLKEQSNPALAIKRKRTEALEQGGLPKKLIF
T1 sequence (P51946 whole entry partner): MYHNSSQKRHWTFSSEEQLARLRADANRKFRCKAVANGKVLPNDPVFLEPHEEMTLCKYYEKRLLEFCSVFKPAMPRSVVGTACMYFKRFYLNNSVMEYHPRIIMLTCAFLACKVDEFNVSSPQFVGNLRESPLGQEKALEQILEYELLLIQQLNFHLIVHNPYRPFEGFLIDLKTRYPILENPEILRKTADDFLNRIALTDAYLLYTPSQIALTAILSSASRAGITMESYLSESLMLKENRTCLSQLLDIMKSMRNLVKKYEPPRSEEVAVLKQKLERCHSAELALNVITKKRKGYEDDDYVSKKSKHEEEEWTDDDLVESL
T1 sequence (P51948 whole entry partner): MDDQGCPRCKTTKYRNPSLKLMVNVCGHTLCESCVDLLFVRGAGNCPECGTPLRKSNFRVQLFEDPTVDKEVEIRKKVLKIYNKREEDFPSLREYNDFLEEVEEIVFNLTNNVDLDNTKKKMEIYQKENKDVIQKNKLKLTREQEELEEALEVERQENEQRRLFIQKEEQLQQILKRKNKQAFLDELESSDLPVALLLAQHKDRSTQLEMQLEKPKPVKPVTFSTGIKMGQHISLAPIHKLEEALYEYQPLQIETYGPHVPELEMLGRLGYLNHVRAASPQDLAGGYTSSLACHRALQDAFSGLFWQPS
Method: Human CDKs, cyclins and other partner proteins were expressed in insect cell, purified individually, reconstituted and then purified to homogeneity before being used for kinase activity assay.
Kinase activity of CDKs were determined by mobility shift assay (MSA), in which the formation of a phosphorylated fluorescence-labelled peptide in reaction mixture was monitored through capillary electrophoresis in a microfluidic environment. […] The mixtures were incubated at 27° C. for 40 min before being quenched with 4 μl 80 mM EDTA, then read on a LabChip EZ Reader II (Caliper Life Science). IC50 of compound for CDKs was calculated by Prism (GraphPad) using a four-parameter nonlinear curve fit.

HCC70 = assay: Inhibition of cell proliferation (CyQuant), HCC70; format: cell-based; conditions: Homo sapiens; HCC70 breast cancer cell line, 120 hour, CyQuant assay kit
Method: (§1) Exemplary compounds of the invention were tested at different concentrations (from 10 μM to 610 pM; 4-fold serial dilutions) for their ability to inhibit the proliferation of various cancer cell lines. Known kinase inhibitor staurosporine were used as positive controls. Cells were grown in the indicated media listed below. All cell lines were supplemented with FBS (Life Technologies) and 100 U-mL^−1 penicillin, 100 μg·mL^−1 streptomycin (Invitrogen) and cultured at 37° C. in a humidified chamber in the presence of 5% CO2. Proliferation assays were conducted over a 120 hour time period. CyQuant assay kit (ThermoFisher) was used to assess the anti-proliferative effects of the compounds following manufacturer's directions.
(§2) The following cancer cell lines may be tested with the exemplary media conditions indicated:
(§3) Exemplary results of these assays are set forth in Tables 3, where “A” represents an IC50 value of less than 0.2 μM; “B” represents an IC50 value of between 0.2 μM and 5 μM, inclusive; and “C” represents an IC50 value of greater than 5 μM. “NT” represents that the specified compound was not tested in the specified assay.

OVCAR3 = assay: Inhibition of cell proliferation (CyQuant), OVCAR3; format: cell-based; conditions: Homo sapiens, OVCAR-3; OVCAR3 ovarian cancer cell line, 120 hour, CyQuant assay kit
Method: as §1, §2
• OVCAR3: RPMI 1640+0.01 mg/mi bovine insulin+20% FBS+1% Glutamax
as §3

[1] = The CDK may be CDK7, mobility shift assay, 2 mM ATP, 3 nM CDK/Cyclin, 27° C. for 40 min, read-out: IC50 (CDK inhibition)

Row | IC50 (CDK7/Cyclin H/MAT1; [1]) | IC50 (OVCAR3) | Compound | IC50 (HCC70) | IC50 (CDK7/Cyclin H/MAT1)
1 | < 100 nM | < 200 nM | CC(C)n1nccc1-c1ncccc1CNc1nc(N2CCC(N)CC2)nc2c1ncn2C(C)C [Compound I-6, 2-(4-aminopiperidin-1-yl)-9-isopropyl-N-((2-(1-isopropyl-1H-pyrazol-5-yl)pyridin-3-yl)methyl)-9H-purin-6-amine] | < 200 nM | 
2 | < 100 nM | < 200 nM | CC(C)N1CCN(c2ccn(-c3ccccc3CNc3nc(N4CCC(N)CC4)nc4c3ncn4C(C)C)n2)CC1 [Compound I-4, 2-(4-aminopiperidin-1-yl)-9-isopropyl-N-(2-(3-(4-isopropylpiperazin-1-yl)-1H-pyrazol-1-yl)benzyl)-9H-purin-6-amine hydrochloride] | < 200 nM | 
3 | < 100 nM | < 200 nM | CC(C)n1cnc2c(NCc3ccccc3-c3ccnn3C)nc(N3CCC(N)CC3)nc21 [Compound I-12, 2-(4-aminopiperidin-1-yl)-9-isopropyl-N-(2-(1-methyl-1H-pyrazol-5-yl)benzyl)-9H-purin-6-amine] | < 200 nM | 
4 | < 100 nM | < 200 nM | CNC1CCN(c2nc(NCc3ccccc3-n3cccn3)c3ncn(C(C)C)c3n2)CC1 [Compound I-19, N-(2-(1H-pyrazol-1-yl)benzyl)-9-isopropyl-2-(4-(methylamino)piperidin-1-yl)-9H-purin-6-amine] | < 200 nM | 
5 | < 100 nM | 200 to 5000 nM | CC(C)n1cnc2c(NCc3ccccc3-n3ccc(C(=O)N4CCN(C)CC4)n3)nc(N3CCC(N)CC3)nc21 [Compound I-3, (1-(2-(((2-(4-aminopiperidin-1-yl)-9-isopropyl-9H-purin-6-yl)amino)methyl)phenyl)-1H-pyrazol-3-yl)(4-methylpiperazin-1-yl)methanone] | 200 to 5000 nM | 
6 | < 100 nM |  | CC(C)n1cnc2c(NCc3c(F)cccc3-n3cccn3)nc(N3CCC(N)CC3)nc21 [Compound I-24, 2-(4-aminopiperidin-1-yl)-N-(2-fluoro-6-(1H-pyrazol-1-yl)benzyl)-9-isopropyl-9H-purin-6-amine hydrochloride] |  | 
7 | 100 to 500 nM |  | CC(C)n1cnc2c(NCc3ccccc3-n3cccn3)nc(NCC3(O)CCNCC3)nc21 [Compound I-14, 4-(((6-((2-(1H-pyrazol-1-yl)benzyl)amino)-9-isopropyl-9H-purin-2-yl)amino)methyl)piperidin-4-ol trihydrochloride] |  | 
8 |  |  | CC(C)n1cnc2c(NCc3ccccc3-n3cccn3)nc(N3CCNCC3)nc21 [Compound I-28, N-(2-(1H-pyrazol-1-yl)benzyl)-9-isopropyl-2-(piperazin-1-yl)-9H-purin-6-amine] |  | < 100 nM
9 | < 100 nM | 200 to 5000 nM | CC(C)n1cnc2c(NCc3ccccc3-n3cccn3)nc(N3CCC[C@H](N)C3)nc21 [Compound I-10, (S)—N-(2-(1H-pyrazol-1-yl)benzyl)-2-(3-aminopiperidin-1-yl)-9-isopropyl-9H-purin-6-amine] | 200 to 5000 nM | 
10 | < 100 nM |  | CC(C)n1cnc2c(NCc3ccccc3-n3cccn3)nc(N3CCC[C@@H](N)C3)nc21 [Compound I-11, (R)—N-(2-(1H-pyrazol-1-yl)benzyl)-2-(3-aminopiperidin-1-yl)-9-isopropyl-9H-purin-6-amine] |  | 
11 | < 100 nM |  | CC(C)n1cnc2c(NCc3c(Cl)cccc3-n3ccc(C(C)(C)O)n3)nc(NC3CCNCC3)nc21 [Compound I-18, 2-[1-[3-chloro-2-[[[9-isopropyl-2-(4-piperidylamino)purin-6-yl]amino]methyl]phenyl]pyrazol-3-yl]propan-2-ol] |  | 
12 | 500 to 1000 nM |  | CC(C)n1cnc2c(NCc3ccccc3-n3cccn3)nc(N[C@H]3CC[C@H](O)CC3)nc21 [Compound I-39, (1R,4R)-4-((6-((2-(1H-pyrazol-1-yl)benzyl)amino)-9-isopropyl-9H-purin-2-yl)amino)cyclohexan-1-ol] |  | 
13 | < 100 nM | < 200 nM | CC(C)n1cnc2c(NCc3ccccc3-n3ccc(C(C)(C)O)n3)nc(N3CCC(N)CC3)nc21 [Compound I-16, 2-(1-(2-(((2-(4-aminopiperidin-1-yl)-9-isopropyl-9H-purin-6-yl)amino)methyl)phenyl)-1H-pyrazol-3-yl)propan-2-ol] | < 200 nM | 
14 | 100 to 500 nM |  | CC(C)n1cnc2c(NCc3ccccc3-n3cccn3)nc(N3CCC(CN(C)C)CC3)nc21 [Compound I-32, N-(2-(1H-pyrazol-1-yl)benzyl)-2-(4-((dimethylamino)methyl)piperidin-1-yl)-9-isopropyl-9H-purin-6-amine] |  | 
15 | < 100 nM | 200 to 5000 nM | CCn1cnc2c(NCc3ccccc3-n3cccn3)nc(N3CCC(N)CC3)nc21 [Compound I-7, N-(2-(1H-pyrazol-1-yl)benzyl)-2-(4-aminopiperidin-1-yl)-9-ethyl-9H-purin-6-amine hydrochloride] | 200 to 5000 nM | 
16 | 100 to 500 nM |  | CC(C)n1cnc2c(NCc3ccccc3-n3cccn3)nc(N3CCC(C4CCNCC4)CC3)nc21 [Compound I-5, N-(2-(1H-pyrazol-1-yl)benzyl)-2-([4,4′-bipiperidin]-1-yl)-9-isopropyl-9H-purin-6-amine hydrochloride] |  | 
17 | < 100 nM | 200 to 5000 nM | CC(C)n1cnc2c(NCc3ccccc3-n3ccc(C(=O)N4CCN(CCO)CC4)n3)nc(N3CCC(N)CC3)nc21 [Compound I-2, (1-(2-(((2-(4-aminopiperidin-1-yl)-9-isopropyl-9H-purin-6-yl)amino)methyl)phenyl)-1H-pyrazol-3-yl)(4-(2-hydroxyethyl)piperazin-1-yl)methanone] | 200 to 5000 nM | 
18 | < 100 nM |  | CC(C)n1cnc2c(NCc3ccccc3-n3ccc(C(C)(C)O)n3)nc(NC3CCNCC3)nc21 [Compound I-17, 2-(1-(2-(((9-isopropyl-2-(piperidin-4-ylamino)-9H-purin-6-yl)amino)methyl)phenyl)-1H-pyrazol-3-yl)propan-2-ol] |  | 
19 | < 100 nM | < 200 nM | CC(C)n1cnc2c(NCc3ccccc3-c3cnn(C)c3)nc(N3CCC(N)CC3)nc21 [Compound I-8, 2-(4-aminopiperidin-1-yl)-9-isopropyl-N-(2-(1-methyl-1H-pyrazol-4-yl)benzyl)-9H-purin-6-amine] | 200 to 5000 nM | 
20 | 100 to 500 nM |  | CC(C)n1cnc2c(NCc3ccccc3-n3cccn3)nc(N3CCC(N)C3)nc21 (stereo not shown) [Compound I-36, N-(2-(1H-pyrazol-1-yl)benzyl)-2-(3-aminopyrrolidin-1-yl)-9-isopropyl-9H-purin-6-amine] |  | 
21 | < 100 nM |  | CCN(CC)C1CCN(c2nc(NCc3ccccc3-n3cccn3)c3ncn(C(C)C)c3n2)CC1 [Compound I-20, 2-[4-(diethylamino)-1-piperidyl]-9-isopropyl-N-[(2-pyrazol-1-ylphenyl)methyl]purin-6-amine] |  | 
22 | < 100 nM |  | CC(C)n1cnc2c(NCc3ccccc3-n3ccc(CO)n3)nc(N3CCC(N)CC3)nc21 [Compound I-1, (1-(2-(((2-(4-aminopiperidin-1-yl)-9-isopropyl-9H-purin-6-yl)amino)methyl)phenyl)-1H-pyrazol-3-yl)methanol] |  | 
23 | < 100 nM |  | CC(C)c1n[nH]c2c(NCc3ccccc3-n3cccn3)nc(N3CCC(N)CC3)nc12 [II-1, N-(2-(1H-pyrazol-1-yl)benzyl)-5-(4-aminopiperidin-1-yl)-3-isopropyl-1H-pyrazolo[4,3-d]pyrimidin-7-amine hydrochloride] |  | 
24 | < 100 nM |  | c1ccc(-n2cccn2)c(CNc2nc(N3CCNCC3)nc3c2ncn3C2CCCC2)c1 [Compound I-27, N-(2-(1H-pyrazol-1-yl)benzyl)-9-cyclopentyl-2-(piperazin-1-yl)-9H-purin-6-amine] |  | 
25 | 100 to 500 nM |  | CC(C)n1cnc2c(NCc3ccccc3-n3cccn3)nc(N3CCC(O)(CN(C)C)CC3)nc21 [Compound I-29, 1-(6-((2-(1H-pyrazol-1-yl)benzyl)amino)-9-isopropyl-9H-purin-2-yl)-4-((dimethylamino)methyl)piperidin-4-ol] |  | 
26 | > 1000 nM |  | CC(C)n1cnc2c(NCc3ccccc3-n3cccn3)nc(N3CCC(O)(Cn4cc(C(F)(F)F)cn4)CC3)nc21 [Compound I-35, 1-(6-((2-(1H-pyrazol-1-yl)benzyl)amino)-9-isopropyl-9H-purin-2-yl)-4-((4-(trifluoromethyl)-1H-pyrazol-1-yl)methyl)piperidin-4-ol] |  | 
